Molecules are shown by their SMILES. Some results are limits rather than exact numbers.

The target in assay [1] is T1, Melanin-concentrating hormone receptor 1 (Homo sapiens, UniProt Q99705). The experiment in a line: Inhibitory activity against mutated constitutively activated human Melanin concentrating hormone receptor 1 (CA-MCH-R1) stably expressed in HEK293 cells using [125I](Phe13, Tyr19) MCH. Format: cell-based.
Target sequence in this assay (Q99705 whole entry, looked up): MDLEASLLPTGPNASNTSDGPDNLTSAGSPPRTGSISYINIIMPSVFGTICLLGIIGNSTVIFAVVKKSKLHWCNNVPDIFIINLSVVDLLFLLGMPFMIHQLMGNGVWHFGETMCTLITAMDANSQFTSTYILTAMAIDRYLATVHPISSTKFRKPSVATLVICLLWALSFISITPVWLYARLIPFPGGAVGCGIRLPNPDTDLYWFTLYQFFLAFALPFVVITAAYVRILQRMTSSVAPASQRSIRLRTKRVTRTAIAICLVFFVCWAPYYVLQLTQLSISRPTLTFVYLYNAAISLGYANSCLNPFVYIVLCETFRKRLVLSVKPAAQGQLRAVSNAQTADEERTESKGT
Assay [2] concerns the target Alpha-2A adrenergic receptor (Homo sapiens, UniProt P08913). In words: Inhibitory activity against constitutively activated human Alpha-2A adrenergic receptor transiently expressed in COS-1 cells using [3H]MK-912. Format: cell-based.
In assay [3] the target is T2, Neuropeptide Y receptor type 5 (Homo sapiens, UniProt Q15761).
T2 sequence (Q15761 whole entry): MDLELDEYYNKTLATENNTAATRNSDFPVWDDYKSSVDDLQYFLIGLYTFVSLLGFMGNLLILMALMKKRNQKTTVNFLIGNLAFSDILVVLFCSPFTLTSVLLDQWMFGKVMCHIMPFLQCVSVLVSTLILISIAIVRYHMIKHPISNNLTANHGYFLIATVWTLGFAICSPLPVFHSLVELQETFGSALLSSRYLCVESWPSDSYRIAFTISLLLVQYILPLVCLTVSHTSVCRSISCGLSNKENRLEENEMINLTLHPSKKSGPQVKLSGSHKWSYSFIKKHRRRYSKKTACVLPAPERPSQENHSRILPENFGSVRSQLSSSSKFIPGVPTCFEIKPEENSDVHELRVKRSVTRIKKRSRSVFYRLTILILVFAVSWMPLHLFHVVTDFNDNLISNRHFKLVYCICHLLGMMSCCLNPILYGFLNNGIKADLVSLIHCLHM
The experiment in a line: Inhibitory activity against constitutively activated human Neuropeptide Y receptor Y5 transiently expressed in COS-1 cells using [125I]PYY. Format: cell-based.

Assay [4] addresses T1, Melanin-concentrating hormone receptor 1. In words: Inhibitory activity against mutated constitutively activated human Melanin concentrating hormone receptor 1 (CA-MCH-R1) stably expressed in HEK293 cells using [125I](Phe13, Tyr19) MCH (n=8). Format: cell-based.
Target sequence in this assay (Q99705 whole entry, looked up): as the sequence (Q99705 whole entry, looked up) above
Assay [5] shares this target. The experiment in a line: Inhibitory activity against human wild type Melanin concentrating hormone receptor 1 (CA-MCH-R1) stably expressed in HEK293 cells using [125I](Phe13, Tyr19) MCH (n=3). Type of assay: cell-based.
Target sequence in this assay (Q99705 whole entry): as the sequence (Q99705 whole entry, looked up) above
For assay [6] the target is unchanged. The experiment in a line: Inhibitory activity against human constitutively activated Melanin concentrating hormone receptor 1 induced calcium flux stably expressed in HEK293 cells (n=6).
Target sequence in this assay (Q99705 whole entry): as the sequence (Q99705 whole entry, looked up) above

Chain of Alpha-2A adrenergic receptor (P08913 whole entry, looked up): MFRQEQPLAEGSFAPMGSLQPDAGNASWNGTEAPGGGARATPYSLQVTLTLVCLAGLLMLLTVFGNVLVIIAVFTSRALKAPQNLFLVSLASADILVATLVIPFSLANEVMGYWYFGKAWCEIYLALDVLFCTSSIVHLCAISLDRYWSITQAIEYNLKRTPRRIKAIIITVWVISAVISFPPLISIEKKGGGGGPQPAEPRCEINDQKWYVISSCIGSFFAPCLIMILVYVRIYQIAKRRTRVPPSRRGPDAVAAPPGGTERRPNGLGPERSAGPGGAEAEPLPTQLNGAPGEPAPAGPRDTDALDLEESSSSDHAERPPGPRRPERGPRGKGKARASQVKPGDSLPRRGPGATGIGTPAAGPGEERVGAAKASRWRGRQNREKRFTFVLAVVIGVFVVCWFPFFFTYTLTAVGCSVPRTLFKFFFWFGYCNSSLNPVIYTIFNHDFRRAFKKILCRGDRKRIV

For `CN(C)c1nc(NCC2CCN(S(=O)(=O)c3ccc(Br)cc3OC(F)(F)F)CC2)nc2ccccc12`, the IC50 in assay [1] turned out to be 6 µM; in assay [2], 0.0056 µM; in assay [3], 3 µM.

Take `CN(C)c1nc(NC2CCC(CNS(=O)(=O)c3ccc(Br)cc3OC(F)(F)F)CC2)nc2ccccc12` (stereo not given): the IC50 worked out at 1.5 µM in assay [1], 0.11 µM in assay [2] and 0.15 µM in assay [3].

As to `CN(C)c1nc(NCC2CCC(CNS(C)(=O)=O)CC2)nc2ccccc12` (stereo not given), the IC50 is above 10 µM in assay [1], 0.086 µM in assay [2] and 0.041 µM in assay [3].

For the compound `CN(C)c1nc(NC2CCN(S(=O)(=O)c3ccc(Br)cc3OC(F)(F)F)CC2)nc2ccccc12`, the results for the IC50 in assay [1], in assay [2] and in assay [3] were 0.25 µM, 0.17 µM and 8.9 µM, respectively.

As for `Nc1nc(NCC2CCC(CNS(=O)(=O)c3ccc(Br)cc3OC(F)(F)F)CC2)nc2ccccc12` (trans isomer), the IC50 in assay [1] is 1.9 µM; in assay [2] it was 0.1 µM; in assay [3] it was 0.0016 µM.

For `CN(C)c1nc(NCC2CCC(CNS(=O)(=O)c3ccc(Br)cc3OC(F)(F)F)CC2)nc2ccccc12` (trans isomer), the IC50 amounted to 0.16 µM in assay [4]; 0.2 µM in assay [5]; 0.0077 µM in assay [2]; 0.0027 µM in assay [3]; 0.14 µM in assay [6].

On to `CCCCS(=O)(=O)NCC1CCC(CNc2nc(N(C)C)c3ccccc3n2)CC1` (trans isomer), for which the IC50 in assay [1] came out at 2.9 µM; in assay [2], 0.058 µM; in assay [3] it was 0.0049 µM.

With `CN(C)c1nc(NC2CCC(NS(=O)(=O)c3ccc(Br)cc3OC(F)(F)F)CC2)nc2ccccc12` (trans isomer), the IC50 in assay [1] is 2.2 µM; in assay [2], 0.047 µM; in assay [3], 0.031 µM.

As for `CN(C)c1nc(NCC2CCC(NS(=O)(=O)c3ccc(Br)cc3OC(F)(F)F)CC2)nc2ccccc12` (trans isomer), the IC50 in assay [1] was found to be 0.81 µM; in assay [2], 0.021 µM; in assay [3] it was 0.0025 µM.

For the compound `CCCCCCCCS(=O)(=O)NCC1CCC(CNc2nc(N(C)C)c3ccccc3n2)CC1` (trans isomer), the IC50 in assay [1] is 6.7 µM.

As to `O=S(=O)(NCC1CCC(CNc2ncc3ccccc3n2)CC1)c1ccc(Br)cc1OC(F)(F)F` (trans isomer), the values for the IC50 in assay [1], in assay [2] and in assay [3] were above 10 µM, 0.14 µM and 0.078 µM, respectively.

In turn, `CC(C)S(=O)(=O)NCC1CCC(CNc2nc(N(C)C)c3ccccc3n2)CC1` (trans isomer) showed an IC50 in assay [1] above 10 µM.

Turning to `Nc1nc(NC[C@H]2CC[C@H](CNS(=O)(=O)c3cccc4ccccc34)CC2)nc2ccccc12` [CGP-71683A], the IC50 in assay [1] is 3.5 µM.

The IC50 is the concentration needed to halve the response being measured.

These data come from ChEMBL document CHEMBL1145250, “Discovery of 4-(dimethylamino)quinazolines as potent and selective antagonists for the melanin-concentrating hormone receptor 1” (Bioorg Med Chem Lett, 2005).
